Laboratory results from patent publication US20260027096A1, “PHD INHIBITORS” (Oxford University Innovation Limited, priority 2023, published 2026).

Assays:
[1] = system: Meis1/Hoxa9-transformed AML cells lacking both Hif1α and Hif2α and control cells; assay: Proliferation of control and Hif1α/Hif2α-deficient Meis1/Hoxa9 AML cells; type: cell-based, mouse; conditions: 50 μM
From the text: Viable cells were counted by trypan blue exclusion at the indicated time points.
To investigate whether HIF-α mediates the anti-leukaemic effects of PHD inhibition, Meis1/Hoxa9-transformed AML cells lacking both Hif1α and Hif2α and control cells were employed (Vukovic et al., 2015).

[2] = system: murine iMLL-AF9 LSK cells in DOX-treated recipient mice; assay: iMLL-AF9 LSK cell transplantation AML model; type: in vivo, mouse; conditions: vs vehicle
From the text: (A) 100,000 THP-1 cells were transplanted into NBSGW recipient mice. […] (B-C) Percentage of human CD45+CD33+ and human CD45+CD14+ cells in the BM and spleen, respectively (n=4-5). (D) 100,000 OCI-AML3 cells were transplanted into NBSGW recipient mice. […] (E) Percentage of human CD45+CD33+CD14+ cells in the liver, BM and PB, respectively (n=3-7). (F) 2,000 LSK cells from iMLL-AF9;Control mice were sorted and transplanted into irradiated recipient mice. […] (H) LDA in secondary recipients transplanted with indicated doses of CD45.2+BM cells from primary recipients (n=9-10 per dose). (I) Plot showing Poisson statistical analysis. […] LSC frequencies were calculated using the ELDA software 121. […]
For primary transplantations of leukemic cells, 100,000 Meis1/Hoxa9-transduced c-Kit^+ cells or 2,000 iMLL-AF9 Lin Sca-1^+c-Kit^+ (LSK) cells were transplanted into lethally irradiated CD45.1^+/CD45.2^+ recipient mice (together with 200,000 unfractionated support CD45.1^+ wild-type BM cells). All recipient were culled upon reaching their humane endpoint as recorded in survival curves.
For secondary transplantations of leukaemic cells, 50,000 cells harvested from primary recipients were transplanted into lethally irradiated CD45.1+/CD45.2+recipient mice (together with 200,000 unfractionated support CD45.1+wild-type BM cells). […] LSC frequency was calculated using ELDA software^121. […]

O=C(NCC1CCC(C(F)(F)F)CC1)c1c[nH]c(-n2cccn2)cc1=O (stereo not drawn) [IOX5]
proliferation of control vs Hif1α/Hif2α-deficient cells [1]: control AML cells manifest substantially reduced proliferation, while Hif½αDKO cells are refractory | survival of leukaemic mice ([2]; i.p. twice daily for 14 days): significantly increased survival of leukaemic mice | LSC frequency (limiting dilution assay) ([2]; secondary recipients): significantly decreased LSC frequency
